From patent publication US20180064662A1 (THE GENERAL HOSPITAL CORPORATION, priority 2015, published 2018)

Key:
AK4.4 tumors = test: Orthotopic AK4.4 PDAC model in obese FVB mice, metformin in drinking water; format: in vivo, mouse
Source text: (§1) Wild-type (WT) C57BL/6 and FVB male mice were originally obtained from The Jackson Laboratory (The Jackson Laboratory, Bar Harbor, Me.) and bred and maintained in our defined-flora animal facility. Mice were maintained on a 12-h light-dark cycle in a temperature-controlled barrier facility, with ad libitum access to food and acidified water. To generate obese/diabetic mouse models, mice (6-weeks old) were given a 60% fat diet (D12492, Research Diets, New Brunswick, N.J.) for 10 weeks as previously described (49-51). For tumor experiments, the PAN02 and AK4.4 syngeneic PDAC models were used in C57BL/6 and FVB immunocompetent mice, respectively. PAN02 cells (SMAD4-m174) (52) were obtained from ATCC. AK4.4 cells (KrasG12D and p53^+/−) were isolated from mice generating spontaneous pancreatic tumors (Pt∫1-Cre/LSL-Kras^G12D/p53^Loxi−) (53). Orthotopic pancreatic tumors were generated by implanting a small piece (1 mm^3) of viable tumor tissue (from a source tumor in a separate donor animal) into the pancreas of a 6-8- week-old male lean or obese FVB (AK4.4 model) or C57BL/6 (PAN02 model) mouse. Both tumor models used were authenticated by IDEXX Laboratories. (PAN02: IDEXX RADIL Case # 22366-2013. AK4.4: IDEXX RADIL Case # 27818-2014).
(§2) At day 21, plasma and tumor samples were collected, and tumors were weighed and processed for further analysis.
(§3) This can be translated to the human equivalent dose by using the Reagan-Shaw method (54). According to the formula for the human equivalent dose [(mg/kg)=animal dose (mg/kg)×animal (km)/human (km). Km for a 60 kg human adults equals 37 and for a 20 g mouse equals 3], the human equivalent of murine dose of 300 mg/kg is 1459 mg for an average sized 60 kg adult human. Therefore, the selected dose in the present study is within the safe therapeutic range recorded in humans. […] This was compatible with the therapeutic periods reported in previous studies (55, 56). […] The amount added to each animal cage was calculated based on the average daily water intake for that cage during a period of 2 weeks prior to treatment initiation, and adjusted every three days based on water consumption and body weight of the animals. […] For in vitro experiments, a range of concentration from 0.05 to 25 mM depending on the cell line used, as discussed below.
(§4) Immediately following excision, tumor tissue was snap frozen and stored in liquid nitrogen. Total RNA was extracted and relative gene expression for macrophage M1/M2 markers was determined using a Sybr-green based standard protocol. In addition, total RNA was extracted and relative gene expression was determined using RT2 Profiler PCR Arrays system (Qiagen) on a Stratagene Mx3000P QPCR System using pre-made pathway-focused arrays (“Fibrosis”-Cat. Number: PAMM011Z; “Epithelial to Mesenchymal Transition (EMT)”-Cat. Number: PAMM090Z; “TGF-β signaling targets”-PAMM235Z; “Extracellular Matrix & Adhesion Molecules”-Cat. Number: PAMM013Z; and “Common cytokines ”-Cat. Number: PAMM021Z).
(§5) Each tumor sample was homogenized directly in lysis buffer for protein extraction. 20 ug of denatured protein per sample was loaded on 7%, 10% and 12% SDS-polyacrylamide gels. Antibodies used: phospho-p38 MAPKT^180/Y182 and p38; phospho-JNK (SAPK/JNK)^Thr183/Tyr185 and JNK; phospho-AKT^Ser473 and AKT, phospho-ERK(p44/42 MAPK)^T202/Y204 and ERK; phospho-NF-κB^Ser536 and NK-κB; p65^Ser536; phospho-Smad2^Ser465/467 and Smad2; phospho-IGF-I Receptor β^Tyr1135 and IGF; Phospho-IRS-1^Ser612 and IRS; IR; phpspho-stat3^Tyr705 and stat3; Phospho-AMPKα^Thr172 and Ampkα; phospho-Ampkβ^Ser108 and Ampk; phospho-ACC^Ser79 and ACC; Phospho-PDGF Receptor β^Tyr751 and PDGF Receptor β and snail, c-cadherin and vimentin, TGF-β, β-catenin, twist, LC3B. […]

PAN02 tumors = test: Orthotopic PAN02 PDAC model in obese C57BL/6 mice, metformin in drinking water; format: in vivo, mouse
Source text: as §1, §2, §3, §4, §5

[1] = obese FVB mice, metformin 300 mg/Kg
[2] = obese FVB mice, metformin 300 mg/Kg in drinking water
[3] = obese FVB mice, metformin 300 mg/Kg in drinking water, day 7 to 21
[4] = TAMs from PAN02 tumors in vivo, qPCR
[5] = obese C57BL/6 mice, metformin 300 mg/Kg
[6] = particularly evident in the more metastatic model PAN02

CN(C)C(=N)N=C(N)N [metformin, 3-(diaminomethylidene)-1,1-dimethylguanidine]
expression of genes involved in ECM remodeling (including MMPs) and EMT (AK4.4 tumors; PCR array, pooled samples): reduced the expression
E-cadherin, protein expression (AK4.4 tumors; Western blot): increased
EMT marker vimentin, protein expression (AK4.4 tumors; Western blot): decreased
activation of metabolic pathways in tumors (AK4.4 tumors; Western blot): did not affect the activation of metabolic pathways
expression of the autophagy marker L3CB (AK4.4 tumors; Western blot): unchanged
reduction of metalloproteinase 9 (MMP9) protein (AK4.4 tumors; Western blot, metformin 300 mg/Kg): 70%
MMP activity in tumors (AK4.4 tumors; compared to control mice): decreased
TAM levels lower with metformin treatment (F4/80) (AK4.4 tumors; [1]): 60%
activation of STAT3 in whole tumors (AK4.4 tumors; [1]): decreased activation of STAT3
expression of IL-1β and CXCL-1 in tumors (multiplex protein array) (AK4.4 tumors; [1]): reduced the expression of IL-1β and CXCL-1
decrease of percentage of activated (αSMA) PSCs that co-express HA (AK4.4 tumors; [2]): 58%
decrease of percentage of activated (αSMA) PSCs that co-express collagen-I (AK4.4 tumors; [2]): 38%
expression of AT1 in tumors (Western blot) (AK4.4 tumors; [2]): reduce the expression of AT1
reduced expression of HA (AK4.4 tumors; [3]): 64%
reduced expression of collagen-I (AK4.4 tumors; [3]): 35%
body weight (AK4.4 tumors; tumor-bearing mice): no change in body weight
expression of M1 markers in flow-sorted TAMs (PAN02 tumors; [4]): without significantly affecting
expression of M2 marker Arg-1 in flow-sorted TAMs (PAN02 tumors; [4]): 1/2
expression of M2 marker IL-10 in flow-sorted TAMs (PAN02 tumors; [4]): 2/3
activation and phosphorylation of IGFR-1 and IRS-1 in tumors (PAN02 tumors; Western blot): trend for reduced activation and phosphorylation
activation of ACC in tumors (PAN02 tumors; Western blot): increased
expression of the autophagy marker L3CB (PAN02 tumors; Western blot): unchanged
average MMP-2 levels in metformin treated tumors (PAN02 tumors; Western blot, not significant): approximately half
IL-1β in tumors (PAN02 tumors; after metformin treatment): reduction of IL-1β
TAM levels lower with metformin treatment (PAN02 tumors; flow cytometry, not significant): ~30%
activation of STAT3 in whole tumors (PAN02 tumors; [5]): decreased activation of STAT3
p38 activation in whole tumors (PAN02 tumors; [5]): trend for reduced p38
decreased expression of HA (PAN02 tumors; obese C57BL/6 mice, metformin 300 mg/Kg in drinking water, did not reach statistical significance): 40%
reduced density of HA positive activated-PSCs (PAN02 tumors; obese C57BL/6 mice, metformin 300 mg/Kg, did not reach significance): 57%
decreased expression of collagen-I (PAN02 tumors; obese C57BL/6 mice, metformin 300 mg/Kg, did not reach statistical significance): 22%
reduced density of collagen-I positive activated PSCs in tumors (PAN02 tumors; obese C57BL/6 mice, metformin 300 mg/Kg, significant): 54%
average number of mesenteric peritoneal and retroperitoneal wall metastasis per mouse (PAN02 tumors; [6]): reduced
incidence of metastasis (number of mice affected) (PAN02 tumors; [6]): reduced the incidence of metastasis
body weight (PAN02 tumors; tumor-bearing mice): no change in body weight
